Here are results for 18 compounds from patent US7858630B2, “D3 and 5-HT2A receptor modulators” (Hoffmann-La Roche Inc., priority 2008, dated 2010).

Structures are written as SMILES.

Experiment [1] addresses T1, human dopamine D2 receptor (Homo sapiens, UniProt P14416).
T1 construct: expressed in transfected cells; host or cells: HEK-293 EBNA cells, transient transfection; membrane preparation
The experiment in a line: Radioligand binding ([3H]-spiperone) to membranes of HEK-293 EBNA cells expressing human D2 receptor. As to conditions: human D2, 0.7 nM [3H]-spiperone, HEK-293 EBNA membranes, 1 h at RT. A digest of the protocol:
(§1)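 Membranes from HEK-293 EBNA cells transiently transfected with the receptor were incubated 1 h at RT with ten test concentrations (10 μM–0.1 nM) and ~0.7 nM [3H]-spiperone (D2), 0.5 nM [3H]-spiperone (D3) or 1.1 nM [3H]-ketanserin (5-HT2A). Nonspecific binding was set with 10 μM spiperone, bound radioactivity was read by filtration and scintillation, and Ki was taken from IC50 via Cheng-Prusoff.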

The target of experiment [2] is T2, human dopamine D3 receptor (Homo sapiens, UniProt P35462).
T2 construct: expressed in transfected cells; host or cells: HEK-293 EBNA cells, transient transfection; membrane preparation
Kind of experiment: Radioligand binding ([3H]-spiperone) to membranes of HEK-293 EBNA cells expressing human D3 receptor. As to conditions: human D3, 0.5 nM [3H]-spiperone, HEK-293 EBNA membranes, 1 h at RT. An outline of the steps: as §1

In experiment [3] the target is T3, human serotonin 5-HT2A receptor (Homo sapiens, UniProt P28223).
T3 construct: expressed in transfected cells; host or cells: HEK-293 EBNA cells, transient transfection; membrane preparation
The experiment in a line: Radioligand binding ([3H]-ketanserin) to membranes of HEK-293 EBNA cells expressing human 5-HT2A receptor. As to conditions: 1.1 nM [3H]-ketanserin, HEK-293 EBNA membranes, 1 h at RT. A digest of the protocol: as §1

T2 sequence (P35462 whole entry): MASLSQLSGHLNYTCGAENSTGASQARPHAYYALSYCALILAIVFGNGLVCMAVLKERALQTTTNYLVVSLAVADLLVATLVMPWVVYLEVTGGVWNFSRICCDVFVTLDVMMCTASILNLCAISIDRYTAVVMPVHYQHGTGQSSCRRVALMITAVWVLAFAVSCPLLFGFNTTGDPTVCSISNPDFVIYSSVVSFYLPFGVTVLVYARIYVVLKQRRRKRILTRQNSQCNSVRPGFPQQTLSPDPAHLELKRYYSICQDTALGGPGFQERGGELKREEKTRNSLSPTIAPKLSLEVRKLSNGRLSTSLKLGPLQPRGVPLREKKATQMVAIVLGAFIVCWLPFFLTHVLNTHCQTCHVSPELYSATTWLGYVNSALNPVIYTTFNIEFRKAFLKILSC
T1 sequence (P14416 whole entry): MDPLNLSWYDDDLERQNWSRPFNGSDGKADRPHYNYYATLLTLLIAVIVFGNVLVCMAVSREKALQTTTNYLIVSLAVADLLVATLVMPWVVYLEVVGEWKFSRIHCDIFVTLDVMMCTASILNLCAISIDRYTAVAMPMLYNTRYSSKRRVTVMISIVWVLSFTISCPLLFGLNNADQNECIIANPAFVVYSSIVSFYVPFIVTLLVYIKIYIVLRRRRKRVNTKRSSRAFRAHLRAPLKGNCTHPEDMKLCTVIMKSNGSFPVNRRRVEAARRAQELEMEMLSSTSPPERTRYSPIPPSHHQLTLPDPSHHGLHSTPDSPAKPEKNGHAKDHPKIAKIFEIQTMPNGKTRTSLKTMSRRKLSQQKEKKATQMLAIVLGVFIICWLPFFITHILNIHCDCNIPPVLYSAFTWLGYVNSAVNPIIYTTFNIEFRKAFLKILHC
T3 sequence (P28223 whole entry): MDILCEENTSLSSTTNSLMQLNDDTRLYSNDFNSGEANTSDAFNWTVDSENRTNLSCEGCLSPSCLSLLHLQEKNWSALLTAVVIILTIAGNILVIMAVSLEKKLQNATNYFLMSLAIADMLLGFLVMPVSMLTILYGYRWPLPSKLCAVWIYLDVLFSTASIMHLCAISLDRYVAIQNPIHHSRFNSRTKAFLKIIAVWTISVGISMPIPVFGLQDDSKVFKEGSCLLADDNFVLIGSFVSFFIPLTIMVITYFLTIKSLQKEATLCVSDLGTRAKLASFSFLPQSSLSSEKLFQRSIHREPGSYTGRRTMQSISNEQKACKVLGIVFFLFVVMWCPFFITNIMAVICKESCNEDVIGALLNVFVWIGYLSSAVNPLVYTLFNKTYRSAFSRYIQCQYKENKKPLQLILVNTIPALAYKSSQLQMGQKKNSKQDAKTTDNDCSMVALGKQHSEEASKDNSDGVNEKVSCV

For the compound `CC(C)(O)CC(=O)N[C@H]1CC[C@H](CCN2CCN(c3noc4cc(F)c(F)cc34)CC2)CC1` [Example 64, N-trans-(4-{2-[4-(5,6-Difluoro-benzo[d]isoxazol-3-yl)-piperazin-1-yl]-ethyl}-cyclohexyl)-3-hydroxy-3-methyl-butyramide], the inhibition constant Ki in experiment [1] stood at 0.598 µM; in experiment [2], 0.0101 µM; in experiment [3], 0.0118 µM.
As for `CO[C@H]1CC[C@H](CC(=O)N[C@H]2CC[C@H](CCN3CCN(c4noc5cc(Cl)ccc45)CC3)CC2)C1` (relative stereo) [Example 36, N-trans-(4-{2-[4-(6-Chloro-benzo[d]isoxazol-3-yl)-piperazin-1-yl]-ethyl}-cyclohexyl)-2-trans-(3-methoxy-cyclopentyl)-acetamide], the Ki in experiment [1] was 0.683 µM; in experiment [2] it was 0.0101 µM; in experiment [3], 0.00274 µM.
For `C[C@H](O)CC(=O)N[C@H]1CC[C@H](CCN2CCN(c3noc4cc(Cl)ccc34)CC2)CC1` [Example 45, (S)-N-(4-{2-[4-(6-Chloro-benzo[d]isoxazol-3-yl)-piperazin-1-yl]-ethyl}-cyclohexyl)-3-hydroxy-butyramide], in that order: 0.356 µM, 0.0158 µM and 0.00921 µM.
In the same order, the values of `CCC(=O)N[C@H]1CC[C@H](CCN2CCN(c3noc4cc(F)c(F)cc34)CC2)CC1` [Example 59, N-trans-(4-{2-[4-(5,6-Difluoro-benzo[d]isoxazol-3-yl)-piperazin-1-yl]-ethyl}-cyclohexyl)-propionamide] are 0.389 µM, 0.00988 µM and 0.0148 µM.
With `Cc1cc(CC(=O)N[C@H]2CC[C@H](CCN3CCN(c4noc5cc(F)c(Cl)cc45)CC3)CC2)on1` [Example 82, N-trans-(4-{2-[4-(5-Chloro-6-fluoro-benzo[d]isoxazol-3-yl)-piperazin-1-yl]-ethyl}-cyclohexyl)-2-(3-methyl-isoxazol-5-yl)-acetamide], the Ki came to 11.1 µM in experiment [1], 0.00137 µM in experiment [2] and 0.00299 µM in experiment [3].
For `O=C(C[C@H]1CCCCO1)N[C@H]1CC[C@H](CCN2CCN(c3noc4cc(Cl)ccc34)CC2)CC1` [Example 49, N-trans-(4-{2-[4-(6-Chloro-benzo[d]isoxazol-3-yl)-piperazin-1-yl]-ethyl}-cyclohexyl)-2-(R)-tetrahydro-pyran-2-yl-acetamide], in that order: 1.02 µM, 0.0206 µM and 0.00848 µM.
In the same order, the values of `COC(=O)N[C@H]1CC[C@H](CCN2CCN(c3noc4cc(F)c(Cl)cc34)CC2)CC1` [Example 91, N-trans-(4-{2-[4-(5-Chloro-6-fluoro-benzo[d]isoxazol-3-yl)-piperazin-1-yl]-ethyl}-cyclohexyl)-carbamic acid methyl ester] are 0.197 µM, 0.00058 µM and 0.00184 µM.
Turning to `CC1(C)C[C@H](CC(=O)N[C@H]2CC[C@H](CCN3CCN(c4noc5ccc(F)cc45)CC3)CC2)CCO1` [Example 23, 2-((R)-2,2-Dimethyl-tetrahydro-pyran-4-yl)-N-(4-{2-[4-(5-fluoro-benzo[d]isoxazol-3-yl)-piperazin-1-yl]-ethyl}-cyclohexyl)-acetamide], the figures for the Ki in experiment [1], in experiment [2] and in experiment [3] were 1.06 µM, 0.00703 µM and 0.0268 µM, respectively.
For `COCCC(=O)N[C@H]1CC[C@H](CCN2CCN(c3noc4cc(F)c(C)cc34)CC2)CC1` [Example 108, N-trans-(4-{2-[4-(6-Fluoro-5-methyl-benzo[d]isoxazol-3-yl)-piperazin-1-yl]-ethyl}-cyclohexyl)-3-methoxy-propionamide], in that order: 0.297 µM, 0.008 µM and 0.0189 µM.
In the same order, the values of `CS(=O)(=O)N[C@H]1CC[C@H](CCN2CCN(c3noc4ccc(F)cc34)CC2)CC1` [Example 14, N-trans-(4-{2-[4-(5-Fluoro-benzo[d]isoxazol-3-yl)-piperazin-1-yl]-ethyl}-cyclohexyl)-methanesulfonamide] are 1.07 µM, 0.00337 µM and 0.0281 µM.
With `O=C(CC1CC1)N[C@H]1CC[C@H](CCN2CCN(c3noc4cc(Cl)ccc34)CC2)CC1` [Example 52, N-trans-(4-{2-[4-(6-Chloro-benzo[d]isoxazol-3-yl)-piperazin-1-yl]-ethyl}-cyclohexyl)-2-cyclopropyl-acetamide], the Ki in experiment [1] came to 0.315 µM; in experiment [2] it was 0.00384 µM; in experiment [3] it was 0.00507 µM.
For the compound `COCCC(=O)N[C@H]1CC[C@H](CCN2CCN(c3noc4cc(Cl)c(Cl)cc34)CC2)CC1` [Example 94, N-trans-(4-{2-[4-(5,6-Dichloro-benzo[d]isoxazol-3-yl)-piperazin-1-yl]-ethyl}-cyclohexyl)-3-methoxy-propionamide], the Ki in experiment [1] came out at 1.97 µM; in experiment [2] it was 0.00223 µM; in experiment [3], 0.0263 µM.
In the same order, the values of `O=C(N[C@H]1CC[C@H](CCN2CCN(c3noc4cc(Cl)ccc34)CC2)CC1)C1CCOC1` (stereo partly drawn) [Example 34, Tetrahydro-furan-3-carboxylic acid N-trans-(4-{2-[4-(6-chloro-benzo[d]isoxazol-3-yl)-piperazin-1-yl]-ethyl}-cyclohexyl)-amide] are 0.193 µM, 0.0188 µM and 0.0104 µM.
In the case of `O=C(C[C@H]1C[C@H](CO)C1)N[C@H]1CC[C@H](CCN2CCN(c3noc4ccc(F)cc34)CC2)CC1` [Example 20, N-trans-(4-{2-[4-(5-Fluoro-benzo[d]isoxazol-3-yl)-piperazin-1-yl]-ethyl}-cyclohexyl)-2-trans-(3-hydroxymethyl-cyclobutyl)-acetamide], the results for the Ki in experiment [1], in experiment [2] and in experiment [3] were 0.386 µM, 0.00555 µM and 0.0193 µM, respectively.
For `O=C(CC1COCCO1)N[C@H]1CC[C@H](CCN2CCN(c3noc4cc(F)c(Cl)cc34)CC2)CC1` (stereo partly drawn) [Example 76, N-trans-(4-{2-[4-(5-Chloro-6-fluoro-benzo[d]isoxazol-3-yl)-piperazin-1-yl]-ethyl}-cyclohexyl)-2-[1,4]dioxan-2-yl-acetamide], in that order: 0.632 µM, 0.0199 µM and 0.0204 µM.
For `COC(CC(=O)N[C@H]1CC[C@H](CCN2CCN(c3noc4cc(Cl)ccc34)CC2)CC1)OC` [Example 55, N-trans-(4-{2-[4-(6-Chloro-benzo[d]isoxazol-3-yl)-piperazin-1-yl]-ethyl}-cyclohexyl)-3,3-dimethoxy-propionamide], in that order: 0.396 µM, 0.00616 µM and 0.0076 µM.
In the same order, the values of `COCCC(=O)N[C@H]1CC[C@H](CCN2CCN(c3noc4ccc(F)cc34)CC2)CC1` [Example 5, N-trans-(4-{2-{4-(5-Fluoro-benzo[d]isoxazol-3-yl)-piperazin-1-yl]-ethyl}-cyclohexyl)-3-methoxy-propionamide] are 0.725 µM, 0.00256 µM and 0.0316 µM.
Turning to `CC1(CC(=O)N[C@H]2CC[C@H](CCN3CCN(c4noc5ccc(F)cc45)CC3)CC2)COC1` [Example 21, N-trans-(4-{2-[4-(5-Fluoro-benzo[d]isoxazol-3-yl)-piperazin-1-yl]-ethyl}-cyclohexyl)-2-(3-methyl-oxetan-3-yl)-acetamide], the Ki in experiment [1] was 0.307 µM; in experiment [2], 0.00261 µM; in experiment [3], 0.0111 µM.

Broadly, the Ki is the dissociation constant of the complex between target and ligand, obtained from inhibition or displacement.
